Measurements published in ChEMBL document CHEMBL3860050, “Triterpenoids from Momordica balsamina: Reversal of ABCB1-mediated multidrug resistance” (Bioorg Med Chem, 2016).

Columns and labels:
[1] = target: T1, ATP-dependent translocase ABCB1 (Homo sapiens, UniProt P08183); assay: Inhibition of MDR1-mediated efflux-pump activity in mouse L5178Y cells expressing human MDR1 assessed as forward scattered light at 20 uM preincubated for 10 mins followed by rhodamine-123 addition measured after 20 mins by flow cytometry (reference value: 455.7 to 509.9); assay type: cell-based
[2] = target: T1, ATP-dependent translocase ABCB1; assay: Inhibition of MDR1-mediated efflux-pump activity in mouse L5178Y cells expressing human MDR1 assessed as forward scattered light at 2 uM preincubated for 10 mins followed by rhodamine-123 addition measured after 20 mins by flow cytometry (reference value: 455.7 to 509.9); assay type: cell-based
[3] = Antiproliferative activity against mouse L5178Y cells expressing human MDR1 measured after 72 hrs by MTT assay; assay type: functional, cell-based
[4] = Antiproliferative activity against mouse L5178Y cells measured after 72 hrs by MTT assay; assay type: functional, cell-based
[5] = target: T1, ATP-dependent translocase ABCB1; assay: Inhibition of MDR1-mediated efflux-pump activity in mouse L5178Y cells expressing human MDR1 assessed as side scattered light at 2 uM preincubated for 10 mins followed by rhodamine-123 addition measured after 20 mins by flow cytometry (reference value: 194.6 to 286.4); assay type: cell-based
[6] = target: T1, ATP-dependent translocase ABCB1; assay: Inhibition of MDR1-mediated efflux-pump activity in mouse L5178Y cells expressing human MDR1 assessed as side scattered light at 20 uM preincubated for 10 mins followed by rhodamine-123 addition measured after 20 mins by flow cytometry (reference value: 194.6 to 286.4); assay type: cell-based
[7] = target: T1, ATP-dependent translocase ABCB1; assay: Inhibition of MDR1-mediated efflux-pump activity in mouse L5178Y cells expressing human MDR1 assessed as mean fluorescence intensity at 2 uM preincubated for 10 mins followed by rhodamine-123 addition measured after 20 mins by flow cytometry (reference value: 7.1 to 18.6); assay type: cell-based
[8] = target: T1, ATP-dependent translocase ABCB1; assay: Inhibition of MDR1-mediated efflux-pump activity in mouse L5178Y cells expressing human MDR1 assessed as mean fluorescence intensity at 20 uM preincubated for 10 mins followed by rhodamine-123 addition measured after 20 mins by flow cytometry (reference value: 7.1 to 18.6); assay type: cell-based
[9] = target: T1, ATP-dependent translocase ABCB1; assay: Inhibition of MDR1-mediated efflux-pump activity in mouse L5178Y cells expressing human MDR1 assessed as fluorescence activity ratio at 2 uM preincubated for 10 mins followed by rhodamine-123 addition measured after 20 mins by flow cytometry; assay type: cell-based
[10] = target: T1, ATP-dependent translocase ABCB1; assay: Inhibition of MDR1-mediated efflux-pump activity in mouse L5178Y cells expressing human MDR1 assessed as fluorescence activity ratio at 20 uM preincubated for 10 mins followed by rhodamine-123 addition measured after 20 mins by flow cytometry; assay type: cell-based
[11] = target: T1, ATP-dependent translocase ABCB1; assay: Inhibition of MDR1 in mouse L5178Y cells expressing human MDR1 assessed as doxorubicin-induced antiproliferative activity by measuring combination index at 11.3:1 compound to doxorubicin ratio measured after 48 hrs by MTT assay; assay type: cell-based
[12] = target: T1, ATP-dependent translocase ABCB1; assay: Inhibition of MDR1 in mouse L5178Y cells expressing human MDR1 assessed as doxorubicin-induced antiproliferative activity by measuring combination index at 1.4:1 compound to doxorubicin ratio measured after 48 hrs by MTT assay; assay type: cell-based

T1 sequence (P08183 whole entry): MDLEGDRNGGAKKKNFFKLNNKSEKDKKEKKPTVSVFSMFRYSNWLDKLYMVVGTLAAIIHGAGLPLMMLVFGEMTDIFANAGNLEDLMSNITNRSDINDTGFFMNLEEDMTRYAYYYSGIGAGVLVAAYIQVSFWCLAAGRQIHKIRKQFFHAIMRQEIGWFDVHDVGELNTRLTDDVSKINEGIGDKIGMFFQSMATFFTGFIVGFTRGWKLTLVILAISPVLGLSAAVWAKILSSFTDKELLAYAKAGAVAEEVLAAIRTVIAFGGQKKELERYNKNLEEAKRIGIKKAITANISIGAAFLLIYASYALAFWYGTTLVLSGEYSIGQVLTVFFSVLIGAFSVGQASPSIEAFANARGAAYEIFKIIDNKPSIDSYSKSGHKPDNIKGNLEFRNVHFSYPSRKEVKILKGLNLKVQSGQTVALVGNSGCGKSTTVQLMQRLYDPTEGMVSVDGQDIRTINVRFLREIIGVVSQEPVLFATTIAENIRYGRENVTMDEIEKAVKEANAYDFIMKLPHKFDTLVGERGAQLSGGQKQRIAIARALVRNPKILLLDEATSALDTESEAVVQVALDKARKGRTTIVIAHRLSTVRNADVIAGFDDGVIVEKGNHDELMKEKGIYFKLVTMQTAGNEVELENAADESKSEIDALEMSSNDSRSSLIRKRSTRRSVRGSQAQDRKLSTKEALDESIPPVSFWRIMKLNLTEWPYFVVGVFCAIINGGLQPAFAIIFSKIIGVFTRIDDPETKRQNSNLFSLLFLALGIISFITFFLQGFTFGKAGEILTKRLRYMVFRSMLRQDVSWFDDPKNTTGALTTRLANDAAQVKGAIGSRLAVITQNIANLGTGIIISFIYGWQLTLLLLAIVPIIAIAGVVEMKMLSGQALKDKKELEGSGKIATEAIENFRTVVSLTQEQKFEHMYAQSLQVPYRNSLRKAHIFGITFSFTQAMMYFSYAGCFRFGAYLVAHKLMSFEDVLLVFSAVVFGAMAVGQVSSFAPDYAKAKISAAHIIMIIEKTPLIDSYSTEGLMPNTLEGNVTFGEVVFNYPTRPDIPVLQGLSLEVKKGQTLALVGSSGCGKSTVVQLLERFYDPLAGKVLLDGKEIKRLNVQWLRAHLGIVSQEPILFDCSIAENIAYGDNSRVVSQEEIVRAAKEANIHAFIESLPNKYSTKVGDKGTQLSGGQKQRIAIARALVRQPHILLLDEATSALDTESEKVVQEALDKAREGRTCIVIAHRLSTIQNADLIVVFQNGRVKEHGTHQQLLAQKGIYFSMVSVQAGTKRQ

SMILES	Activity [1]	Activity [2]	IC50 [3] [µM]	IC50 [4] [µM]	Activity [5]	Activity [6]	Flu intensity [7]	Flu intensity [8]	Ratio [9]	Ratio [10]	CI [11]	CI [12]
CC(C)=C[C@H](O)C[C@@H](C)[C@H]1CC[C@@]2(C)[C@@H]3[C@@H](O)C=C4[C@@H](CC[C@H](O)[C@]4(C)CO)[C@]3(C)CC[C@]12C [BALSAMINOL A]	454.5	432.9	12.6	7.2	259	260	20.1	766.1	1.5	47.6	0.503	
CO[C@H]1C=C2[C@@H](CC[C@H](O)[C@]2(C)CO)[C@]2(C)CC[C@]3(C)[C@@H]([C@H](C)C[C@@H](O)C=C(C)C)CC[C@@]3(C)[C@H]12 [BALSAMINOL B]	461.8	439.5	31	7.7	258.8	260.7	95.7	899.1	7.3	68.7		0.378
